# From patent US20230218632A1, “CYCLIC SULFONAMIDE DERIVATIVES AS TRAP1 MODULATORS AND USES THEREOF” (Amathus Therapeutics, Inc., priority 2020, published 2023)
# Molecular target: T1, nanoLuc TRAP1 (Homo sapiens, UniProt Q12931)
# T1 construct: expressed in transfected cells; host or cells: SH-SY5Y cells, transient transfection with FuGENE HD
# T1 sequence (Q12931 60-704): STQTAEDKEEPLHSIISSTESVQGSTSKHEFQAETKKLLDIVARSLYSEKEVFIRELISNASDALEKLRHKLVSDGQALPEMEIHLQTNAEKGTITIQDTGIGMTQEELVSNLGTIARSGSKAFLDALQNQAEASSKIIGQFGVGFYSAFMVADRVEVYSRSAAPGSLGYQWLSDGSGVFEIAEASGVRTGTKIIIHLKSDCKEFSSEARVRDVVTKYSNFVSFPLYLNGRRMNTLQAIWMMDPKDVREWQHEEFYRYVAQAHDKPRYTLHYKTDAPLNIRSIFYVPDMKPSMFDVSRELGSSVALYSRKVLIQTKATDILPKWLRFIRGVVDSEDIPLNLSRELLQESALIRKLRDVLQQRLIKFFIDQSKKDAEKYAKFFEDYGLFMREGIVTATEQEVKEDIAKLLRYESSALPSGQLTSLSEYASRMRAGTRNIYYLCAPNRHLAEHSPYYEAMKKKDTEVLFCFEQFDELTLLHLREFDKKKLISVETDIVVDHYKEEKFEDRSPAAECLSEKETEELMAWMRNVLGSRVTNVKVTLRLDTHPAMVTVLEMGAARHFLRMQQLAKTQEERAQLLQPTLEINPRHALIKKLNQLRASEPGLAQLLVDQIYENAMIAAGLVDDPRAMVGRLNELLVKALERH
# Assay: NanoBRET in-cell target engagement assay
# Type: binding
# Conditions: probe-385, 1 µM; live SHSY5Y cells; FIG. 2
# Description: In-cell target engagement assays were performed as described in Robers M.B. et al. (2019) Quantitative, Real-Time Measurements of Intracellular Target Engagement Using Energy Transfer. In: Ziegler S., Waldmann H. (eds) Systems Chemical Biology. Methods in Molecular Biology, vol 1888. Humana Press, New York, NY; Machleidt et al., ACS Chem. Biol. 2015, 10, 8, 1797-1804; or Vasta et al., Cell Chemical Biology 25, 206-214, Feb. 15, 2018; or as described herein.
# Below is a protocol for transient transfection of SHSY5Y cells with NanoLuc® fusions. • 1. Cultivate SHSY5Y cells appropriately prior to assay in MEM w NEAA supplemented with 10% FBS. • 2. Remove medium from cell flask via aspiration, trypsinize, and allow cells to dissociate from the flask. • 3. Neutralize trypsin using growth medium and pellet cells via centrifugation at 200 g for 5 minutes. • 4. Aspirate medium and re-suspend cells into a single cell suspension using complete cell culture medium. • 5. Adjust the cell density to 300 K/mL in cell culture medium in a sterile, conical tube. • 6. Prepare lipid:DNA complexes as follows (this covers two assay plates, adjust numbers for more plates) • a. Prepare a 10 µg/mL solution of DNA in Opti-MEM without serum. This solution should contain the following ratios of carrier DNA and DNA encoding NanoLuc® fusion. • i. 5.0 µg/mL of Transfection Carrier DNA (pGEM) • ii. […]
compound,measurement,value
"O=C(Nc1ccc2c(c1)S(=O)(=O)N(c1ccc(Br)cc1)CCO2)c1cnc(-c2ccccc2)[nH]1 [Compound 1331, N-(2-(4-bromophenyl)-1,1-dioxido-3,4-dihydro-2H-benzo[b][1,4,5]oxathiazepin-8-yl)-2-phenyl-1H-imidazole-5-carboxamide]",displacement of nanoBRET tracer,displacing the nanoBRET tracer molecule
